pEC50: −log10 of the molar value.
Target: human GPR40 receptor (Homo sapiens, UniProt O14842)
Experiment: Assay I: IP1 accumulation (IPOne HTRF) in 1321N1 cells stably expressing human GPR40
Type: cell-based
Settings: 1321N1 cells expressing human GPR40, stimulation 1 hour at 37° C., 10% CO2, final LiCl 50 mM
Protocol: IP1 accumulation measurements using the IPOne assay system—1321N1 cells stably expressing human GPR40 receptor (Euroscreen, Belgium) are seeded 24 h before the assay in black clear-bottom collagen-coated 384-well plates in culture medium containing 10% FCS, 1% Na-Pyruvate and 400 μg/mL G418. IP1 is assayed according to the Manufacturers description (Cisbio Bioassays, France). In brief, the assay is started by substitution of the culture medium by stimulation buffer (Hepes 10 mM, CaCl2 1 mM, MgCl2 0.5 mM, KCl 4.2 mM, NaCl 146 mM and glucose 5.5 mM, pH 7.4) without LiCl. Cells are stimulated for 1 hour at 37° C., 10% CO2 by addition of the compounds that are diluted in stimulation buffer containing LiCl yielding a final LiCl concentration of 50 mM. Assays are stopped by adding HTRF-conjugates (IP1-d2 and Anti-IP1 cryptate Tb) and lysis buffer, provided by the manufacturer. After an incubation time of 1 hour at room temperature plates are measured using an EnVision™, Perkin Elmer. The obtained fluorescence ratios at 665/615 nM are then used to calculate the pEC50 values using GraphPad Prism 5 (Graphpad Software Inc, USA) by interpolation using an IP1 reference curve and subsequent sigmoidal curve fitting allowing for a variable hill slope.

Chain of human GPR40 receptor (O14842 whole entry): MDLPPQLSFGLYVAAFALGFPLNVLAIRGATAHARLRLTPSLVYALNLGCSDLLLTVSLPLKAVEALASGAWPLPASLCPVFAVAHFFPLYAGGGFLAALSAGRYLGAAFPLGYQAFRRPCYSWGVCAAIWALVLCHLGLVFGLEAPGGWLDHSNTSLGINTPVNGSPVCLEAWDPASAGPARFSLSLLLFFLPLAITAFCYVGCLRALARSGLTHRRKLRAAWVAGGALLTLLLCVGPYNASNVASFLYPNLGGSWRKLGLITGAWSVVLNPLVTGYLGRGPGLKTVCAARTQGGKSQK

Going from Cc1cc(OCC2CN(S(=O)(=O)C(C)C)C2)cc(C)c1-c1ccc(F)c2c1CC[C@H]2Oc1ccc2c(c1)OC[C@H]2CC(=O)O [Example 31, 2-((S)-6-((R)-7-Fluoro-4-(4-((1-(isopropylsulfonyl)azetidin-3-yl)methoxy)-2,6-dimethylphenyl)-2,3-dihydro-1H-inden-1-yloxy)-2,3-dihydrobenzofuran-3-yl)acetic acid] to Cc1cc(OCC2CCN(S(C)(=O)=O)CC2)cc(C)c1-c1ccc(F)c2c1CC[C@H]2Oc1ccc2c(c1)OC[C@H]2CC(=O)O [Example 35, 2-((S)-6-((R)-4-(2,6-Dimethyl-4-((1-(methylsulfonyl)piperidin-4-yl)methoxy)phenyl)-7-fluoro-2,3-dihydro-1H-inden-1-yloxy)-2,3-dihydrobenzofuran-3-yl)acetic acid], the pEC50 falls from 7.77 to 7.24 (0.53 log units).

First: Cc1cc(OC2CCS(=O)(=O)CC2)cc(C)c1-c1ccc(F)c2c1CC[C@H]2Oc1ccc2c(c1)OC[C@H]2CC(=O)O [Example 32, 2-((S)-6-((R)-4-(2,6-Dimethyl-4-(1,1-dioxo-tetrahydro-2H-thiopyran-4-yloxy)phenyl)-7-fluoro-2,3-dihydro-1H-inden-1-yloxy)-2,3-dihydrobenzofuran-3-yl)acetic acid]
Second: Cc1cc(O[C@H]2CCN(S(C)(=O)=O)C2)cc(C)c1-c1ccc(F)c2c1CC[C@H]2Oc1ccc2c(c1)OC[C@H]2CC(=O)O [Example 34, 2-((S)-6-((R)-4-(2,6-Dimethyl-4-((S)-1-(methylsulfonyl)pyrrolidin-3-yloxy)phenyl)-7-fluoro-2,3-dihydro-1H-inden-1-yloxy)-2,3-dihydrobenzofuran-3-yl)acetic acid]
The pEC50 of the first is 0.37 log units lower: 7.59 for the first, 7.96 for the second.

Compared with Cc1cc(O[C@H]2C[C@@H](N(C)S(C)(=O)=O)C2)cc(C)c1-c1ccc(F)c2c1CC[C@H]2Oc1ccc2c(c1)OC[C@H]2CC(=O)O [Example 33, 2-((S)-6-((R)-4-(2,6-Dimethyl-4-((1s,3S)-3-(N-methylmethylsulfonamido)cyclobutoxy)phenyl)-7-fluoro-2,3-dihydro-1H-inden-1-yloxy)-2,3-dihydrobenzofuran-3-yl)acetic acid], Cc1cc(OCCCS(C)(=O)=O)cc(C)c1-c1ccc(F)c2c1CC[C@H]2Oc1ccc2c(c1)OC[C@H]2CC(=O)O [Example 57, 2-((S)-6-((R)-4-(2,6-Dimethyl-4-(3-(methylsulfonyl)propoxy)phenyl)-7-fluoro-2,3-dihydro-1H-inden-1-yloxy)-2,3-dihydrobenzofuran-3-yl)acetic acid] is 0.33 log units lower in pEC50: 7.92 for the first, 7.59 for the second.

Cc1c(OC2CCS(=O)(=O)CC2)cccc1-c1ccc(F)c2c1CC[C@H]2Oc1ccc2c(c1)OC[C@H]2CC(=O)O [Example 38, ((S)-6-{(R)-4-[3-(1,1-Dioxo-hexahydro-1-thiopyran-4-yloxy)-2-methyl-phenyl]-7-fluoro-indan-1-yloxy}-2,3-dihydro-benzofuran-3-yl)-acetic acid] and Cc1c(C(N)=O)cccc1-c1ccc(F)c2c1CC[C@H]2Oc1ccc2c(c1)OC[C@H]2CC(=O)O [Example 59, 2-((3S)-6-((1R)-4-(3-Carbamoyl-2-methylphenyl)-7-fluoro-2,3-dihydro-1H-inden-1-yloxy)-2,3-dihydrobenzofuran-3-yl)acetic acid] are within 0.2 log units of each other in pEC50: 7.12 for the first, 6.93 for the second.

Going from Cc1cc(OCC2(C)CN(S(C)(=O)=O)C2)cc(C)c1-c1ccc(F)c2c1CC[C@H]2Oc1ccc2c(c1)OC[C@H]2CC(=O)O [Example 39, ((S)-6-{(R)-7-Fluoro-4-[4-(1-methanesulfonyl-3-methyl-azetidin-3-ylmethoxy)-2,6-dimethyl-phenyl]-indan-1-yloxy}-2,3-dihydro-benzofuran-3-yl)-acetic acid] to Cc1cc(OCc2ccnn2C)cc(C)c1-c1ccc(F)c2c1CC[C@H]2Oc1ccc2c(c1)OC[C@H]2CC(=O)O [Example 151, 2-((S)-6-((R)-4-(2,6-dimethyl-4-((1-methyl-1H-pyrazol-5-yl)methoxy)phenyl)-7-fluoro-2,3-dihydro-1H-inden-1-yloxy)-2,3-dihydrobenzofuran-3-yl)acetic acid], the pEC50 rises from 8.10 to 8.52 (0.42 log units).

Compared with COCCCS(=O)(=O)c1cc(C)c(-c2ccc(F)c3c2CC[C@H]3Oc2ccc3c(c2)OC[C@H]3CC(=O)O)c(C)c1 [Example 53, ((S)-6-{(R)-7-Fluoro-4-[4-(3-methoxy-propane-1-sulfonyl)-2,6-dimethyl-phenyl]-indan-1-yloxy}-2,3-dihydro-benzofuran-3-yl)-acetic acid], CNC(=O)c1cc(C)c(-c2ccc(F)c3c2CC[C@H]3Oc2ccc3c(c2)OC[C@H]3CC(=O)O)c(C)c1 [Example 62, 2-((S)-6-((R)-4-(2,6-Dimethyl-4-(methylcarbamoyl)phenyl)-7-fluoro-2,3-dihydro-1H-inden-1-yloxy)-2,3-dihydrobenzofuran-3-yl)acetic acid] is 2.05 log units higher in pEC50: 5.91 for the first, 7.96 for the second.

First: Cc1c(OCCCS(C)(=O)=O)cccc1-c1ccc(F)c2c1CC[C@H]2Oc1ccc2c(c1)OC[C@H]2CC(=O)O [Example 58, 2-((3S)-6-((1R)-7-Fluoro-4-(2-methyl-3-(3-(methylsulfonyl)propoxy)phenyl)-2,3-dihydro-1H-inden-1-yloxy)-2,3-dihydrobenzofuran-3-yl)acetic acid]
Second: Cc1cc(C(N)=O)cc(C)c1-c1ccc(F)c2c1CC[C@H]2Oc1ccc2c(c1)OC[C@H]2CC(=O)O [Example 60, 2-((S)-6-((R)-4-(4-Carbamoyl-2,6-dimethylphenyl)-7-fluoro-2,3-dihydro-1H-inden-1-yloxy)-2,3-dihydrobenzofuran-3-yl)acetic acid]
The pEC50 of the first is 0.35 log units lower: 7.24 for the first, 7.59 for the second. The second is the more potent here.

Cc1cc(C(=O)N(C)C)cc(C)c1-c1ccc(F)c2c1CC[C@H]2Oc1ccc2c(c1)OC[C@H]2CC(=O)O [Example 61, 2-((S)-6-((R)-4-(4-(Dimethylcarbamoyl)-2,6-dimethylphenyl)-7-fluoro-2,3-dihydro-1H-inden-1-yloxy)-2,3-dihydrobenzofuran-3-yl)acetic acid] and Cc1cc(C(=O)N2CCOCC2)cc(C)c1-c1ccc(F)c2c1CC[C@H]2Oc1ccc2c(c1)OC[C@H]2CC(=O)O [Example 63, 2-((S)-6-((R)-4-(2,6-Dimethyl-4-(morpholine-4-carbonyl)phenyl)-7-fluoro-2,3-dihydro-1H-inden-1-yloxy)-2,3-dihydrobenzofuran-3-yl)acetic acid] are within 0.2 log units of each other in pEC50: 7.29 for the first, 7.42 for the second.

First: Cc1cc(OCCNC(=O)OC(C)(C)C)cc(C)c1-c1ccc(F)c2c1CC[C@H]2Oc1ccc2c(c1)OC[C@H]2CC(=O)O [Example 65, 2-((S)-6-((R)-4-(4-(2-(tert-Butoxycarbonylamino)ethoxy)-2,6-dimethylphenyl)-7-fluoro-2,3-dihydro-1H-inden-1-yloxy)-2,3-dihydrobenzofuran-3-yl)acetic acid]
Second: COc1cc(COc2cc(C)c(-c3ccc(F)c4c3CC[C@H]4Oc3ccc4c(c3)OC[C@H]4CC(=O)O)c(C)c2)ccn1 [Example 147, 2-((S)-6-((R)-7-fluoro-4-(4-((2-methoxypyridin-4-yl)methoxy)-2,6-dimethylphenyl)-2,3-dihydro-1H-inden-1-yloxy)-2,3-dihydrobenzofuran-3-yl)acetic acid]
The pEC50 of the first is 1.23 log units lower: 7.47 for the first, 8.70 for the second. The second is the more potent here.

Source: patent publication US8642585B2, “Indanyloxydihydrobenzofuranylacetic acids” (Boehringer Ingelheim International GmbH, priority 2012, dated 2014)
